Data taken from PMC5578959, “Selective LRRK2 kinase inhibition reduces phosphorylation of endogenous Rab10 and Rab12 in human peripheral mononuclear blood cells” (Scientific Reports, 2017).

How the values were obtained:
Assay in all cases: KiNativ profiling in human PBMCs
Type in all cases: binding
AKT2,AKT3 = conditions: ATP Loop
Outline: (§1)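 Live human peripheral blood mononuclear cells were treated with compound at 1 µM and 0.1 µM, then kinase engagement was profiled by the KiNativ procedure.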

ARAF = tested on: T1, ARAF; conditions: Lys2
T1 construct: purchased ActivX Technologies (KiNativ)
Outline: as §1

CDK2 = tested on: T2, CDK2
T2 construct: purchased ActivX Technologies (KiNativ)
Outline: as §1

CDK5 = tested on: T3, CDK5
T3 construct: purchased ActivX Technologies (KiNativ)
Outline: as §1

CK1g2 = tested on: T4, CK1g2; conditions: Lys2
T4 construct: purchased ActivX Technologies (KiNativ)
Outline: as §1

CaMK1a = tested on: T5, CaMK1a
T5 construct: purchased ActivX Technologies (KiNativ)
Outline: as §1

[1] = tested on: CaMK2a,CaMK2b,CaMK2d,CaMK2g; conditions: Lys2
Outline: as §1

Erk5 = tested on: T6, Erk5; conditions: Lys2
T6 construct: purchased ActivX Technologies (KiNativ)
Outline: as §1

FGR = tested on: T7, FGR; conditions: Activation Loop
T7 construct: purchased ActivX Technologies (KiNativ)
Outline: as §1

GCK = tested on: T8, GCK
T8 construct: purchased ActivX Technologies (KiNativ)
Outline: as §1

GSK3B = tested on: T9, GSK3B; conditions: Lys2
T9 construct: purchased ActivX Technologies (KiNativ)
Outline: as §1

IKKa = tested on: T10, IKKa; conditions: Lys2
T10 construct: purchased ActivX Technologies (KiNativ)
Outline: as §1

IRE1 = tested on: T11, IRE1; conditions: Lys2
T11 construct: purchased ActivX Technologies (KiNativ)
Outline: as §1

JAK3 domain2 = tested on: T12, JAK3 domain2
T12 construct: JAK3 domain2; purchased ActivX Technologies (KiNativ)
Outline: as §1

MAP2K5 = tested on: T13, MAP2K5
T13 construct: purchased ActivX Technologies (KiNativ)
Outline: as §1

MAP3K15,MAP3K5,MAP3K6 = conditions: Lys1
Outline: as §1

MAP3K6 = tested on: T14, MAP3K6; conditions: Lys2
T14 construct: purchased ActivX Technologies (KiNativ)
Outline: as §1

MLK3 = tested on: T15, MLK3
T15 construct: purchased ActivX Technologies (KiNativ)
Outline: as §1

MSK2 domain1 = tested on: T16, MSK2 domain1; conditions: Lys2
T16 construct: MSK2 domain1; purchased ActivX Technologies (KiNativ)
Outline: as §1

MST1,MST2 = conditions: Lys2
Outline: as §1

MST1 = tested on: T17, MST1; conditions: Lys1
T17 construct: purchased ActivX Technologies (KiNativ)
Outline: as §1

MST2 = tested on: T18, MST2; conditions: Lys1
T18 construct: purchased ActivX Technologies (KiNativ)
Outline: as §1

MST3 = tested on: T19, MST3
T19 construct: purchased ActivX Technologies (KiNativ)
Outline: as §1

NDR2 = tested on: T20, NDR2
T20 construct: purchased ActivX Technologies (KiNativ)
Outline: as §1

PKD2 = tested on: T21, PKD2; conditions: Lys1
T21 construct: purchased ActivX Technologies (KiNativ)
Outline: as §1

PKN1 = tested on: T22, PKN1
T22 construct: purchased ActivX Technologies (KiNativ)
Outline: as §1

PKR = tested on: T23, PKR
T23 construct: purchased ActivX Technologies (KiNativ)
Outline: as §1

PLK1 = tested on: T24, PLK1; conditions: Lys1
T24 construct: purchased ActivX Technologies (KiNativ)
Outline: as §1

RSK2 domain1 = tested on: T25, RSK2 domain1
T25 construct: RSK2 domain1; purchased ActivX Technologies (KiNativ)
Outline: as §1

RSK3 domain1 = tested on: T26, RSK3 domain1; conditions: Lys2
T26 construct: RSK3 domain1; purchased ActivX Technologies (KiNativ)
Outline: as §1

SGK3 = tested on: T27, SGK3
T27 construct: purchased ActivX Technologies (KiNativ)
Outline: as §1

SNRK = tested on: T28, SNRK
T28 construct: purchased ActivX Technologies (KiNativ)
Outline: as §1

TAO1,TAO3 = conditions: Lys2
Outline: as §1

TAO2 = tested on: T29, TAO2; conditions: Lys2
T29 construct: purchased ActivX Technologies (KiNativ)
Outline: as §1

TBK1 = tested on: T30, TBK1; conditions: Lys1
T30 construct: purchased ActivX Technologies (KiNativ)
Outline: as §1

Wnk1,Wnk2,Wnk3 = conditions: Lys2
Outline: as §1

Cn1cc(-c2c[nH]c3ncnc(N4CCOCC4)c23)cc1C#N [PFE-360]
% Inhibition (AKT2,AKT3; 0.1µM): -2.2% | % Inhibition (AKT2,AKT3; 1µM): -5.2% | % Inhibition (ARAF; 0.1µM): 7.6% | % Inhibition (ARAF; 1µM): 2.5% | % Inhibition (CDK2; 0.1µM, Lys1): -5.8% | % Inhibition (CDK2; 0.1µM, Lys2): 4.2% | % Inhibition (CDK2; 1µM, Lys1): -5.5% | % Inhibition (CDK2; 1µM, Lys2): -2.9% | % Inhibition (CDK5; 0.1µM, Lys1): -2.7% | % Inhibition (CDK5; 0.1µM, Lys2): 3.9% | % Inhibition (CDK5; 1µM, Lys1): -6.7% | % Inhibition (CDK5; 1µM, Lys2): -7.1% | % Inhibition (CK1g2; 0.1µM): -2% | % Inhibition (CK1g2; 1µM): -13.3% | % Inhibition (CaMK1a; 0.1µM, Lys1): -2.5% | % Inhibition (CaMK1a; 0.1µM, Lys2): -12.3% | % Inhibition (CaMK1a; 1µM, Lys1): 3.5% | % Inhibition (CaMK1a; 1µM, Lys2): -25% | % Inhibition ([1]; 0.1µM): 6.1% | % Inhibition ([1]; 1µM): 1.2% | % Inhibition (Erk5; 0.1µM): 5% | % Inhibition (Erk5; 1µM): 7.2% | % Inhibition (FGR; 0.1µM): -2.5% | % Inhibition (FGR; 1µM): -6.6% | % Inhibition (GCK; 0.1µM, Lys1): 7.4% | % Inhibition (GCK; 0.1µM, Lys2): 6.5% | % Inhibition (GCK; 1µM, Lys1): 11.4% | % Inhibition (GCK; 1µM, Lys2): -7.7% | % Inhibition (GSK3B; 0.1µM): 11.2% | % Inhibition (GSK3B; 1µM): 14.9% | % Inhibition (IKKa; 0.1µM): 17.9% | % Inhibition (IKKa; 1µM): 15.8% | % Inhibition (IRE1; 0.1µM): -14.5% | % Inhibition (IRE1; 1µM): 10.8% | % Inhibition (JAK3 domain2; 0.1µM, Activation Loop): 6.4% | % Inhibition (JAK3 domain2; 0.1µM, Lys1): 2.6% | % Inhibition (JAK3 domain2; 1µM, Activation Loop): 7.7% | % Inhibition (JAK3 domain2; 1µM, Lys1): -7.6% | % Inhibition (MAP2K5; 0.1µM, Lys1): 4.7% | % Inhibition (MAP2K5; 0.1µM, Lys2): -4.6% | % Inhibition (MAP2K5; 1µM, Lys1): -10.3% | % Inhibition (MAP2K5; 1µM, Lys2): 31.9% | % Inhibition (MAP3K15,MAP3K5,MAP3K6; 0.1µM): 26.2% | % Inhibition (MAP3K15,MAP3K5,MAP3K6; 1µM): 53.5% | % Inhibition (MAP3K6; 0.1µM): -5.9% | % Inhibition (MAP3K6; 1µM): -0.1% | % Inhibition (MLK3; 0.1µM, Lys1): 5% | % Inhibition (MLK3; 0.1µM, Lys2): -4.6% | % Inhibition (MLK3; 1µM, Lys1): -5.6% | % Inhibition (MLK3; 1µM, Lys2): 10.2% | % Inhibition (MSK2 domain1; 0.1µM): 2.2% | % Inhibition (MSK2 domain1; 1µM): 1.9% | % Inhibition (MST1,MST2; 0.1µM): 15% | % Inhibition (MST1,MST2; 1µM): 39.1% | % Inhibition (MST1; 0.1µM): 16.8% | % Inhibition (MST1; 1µM): 34.1% | % Inhibition (MST2; 0.1µM): 15.1% | % Inhibition (MST2; 1µM): 48% | % Inhibition (MST3; 0.1µM, Lys1): -15.8% | % Inhibition (MST3; 0.1µM, Lys2): -6.1% | % Inhibition (MST3; 1µM, Lys1): -21.2% | % Inhibition (MST3; 1µM, Lys2): -16.2% | % Inhibition (NDR2; 0.1µM, Lys1): -18.6% | % Inhibition (NDR2; 0.1µM, Lys2): 2.7% | % Inhibition (NDR2; 1µM, Lys1): -5.5% | % Inhibition (NDR2; 1µM, Lys2): -8.1% | % Inhibition (PKD2; 0.1µM): 3.7% | % Inhibition (PKD2; 1µM): -5.1% | % Inhibition (PKN1; 0.1µM, Lys1): -4.7% | % Inhibition (PKN1; 0.1µM, Lys2): -3.5% | % Inhibition (PKN1; 1µM, Lys1): -10.8% | % Inhibition (PKN1; 1µM, Lys2): -25.9% | % Inhibition (PKR; 0.1µM, Activation Loop): -1.7% | % Inhibition (PKR; 0.1µM, Lys2): -0.1% | % Inhibition (PKR; 1µM, Activation Loop): -6.6% | % Inhibition (PKR; 1µM, Lys2): -9.3% | % Inhibition (PLK1; 0.1µM): -4.1% | % Inhibition (PLK1; 1µM): -6.7% | % Inhibition (RSK2 domain1; 0.1µM, ATP Loop): 13.2% | % Inhibition (RSK2 domain1; 0.1µM, Activation Loop): 9.2% | % Inhibition (RSK2 domain1; 0.1µM, Lys2): -0.1% | % Inhibition (RSK2 domain1; 1µM, ATP Loop): 21.8% | % Inhibition (RSK2 domain1; 1µM, Activation Loop): 20.3% | % Inhibition (RSK2 domain1; 1µM, Lys2): 22.9% | % Inhibition (RSK3 domain1; 0.1µM): 5.5% | % Inhibition (RSK3 domain1; 1µM): 8.1% | % Inhibition (SGK3; 0.1µM, Lys1): 8.9% | % Inhibition (SGK3; 0.1µM, Lys2): -21.8% | % Inhibition (SGK3; 1µM, Lys1): 5.1% | % Inhibition (SGK3; 1µM, Lys2): -10.5% | % Inhibition (SNRK; 0.1µM, Lys1): 17.1% | % Inhibition (SNRK; 0.1µM, Lys2): -21.9% | % Inhibition (SNRK; 1µM, Lys1): -2% | % Inhibition (SNRK; 1µM, Lys2): -18.7% | % Inhibition (TAO1,TAO3; 0.1µM): -0.2% | % Inhibition (TAO1,TAO3; 1µM): -14.3% | % Inhibition (TAO2; 0.1µM): 1.1% | % Inhibition (TAO2; 1µM): -26.1% | % Inhibition (TBK1; 0.1µM): -29% | % Inhibition (TBK1; 1µM): 2.1% | % Inhibition (Wnk1,Wnk2,Wnk3; 0.1µM): 11.3% | % Inhibition (Wnk1,Wnk2,Wnk3; 1µM): 1.3%
